Reference: PMC8206213, “An L-2-hydroxyglutarate biosensor based on specific transcriptional regulator LhgR” (Nature Communications, 2021)
“And” between values parts separate entries of the source, which are not always exact repeats. Equal values may be shown once.

Test: LHGFR expressed in E. coli BL21(DE3), response to exogenous L-2-HG (time course and dose-response)
Type: cell-based
Conditions: Fig. 5a
Protocol: To characterize the sensitivity and specificity of LHGFR expressed in E. coli BL21(DE3), 90 μL cell suspensions following 8 h carbon starvation were mixed with 10 μL increasing concentrations of L-2-HG or other compounds, and then added into a black 96-well plate (total 100 μL/per well), the fluorescence intensities were determined using an EnSight microplate reader (PerkinElmer, USA) and the following instrument settings: excitation at 430 nm, emission at 485 nm (mTFP) and 528 nm (Venus), time intervals of 5 min, the temperature at 37 °C, and shake at 180 rpm.

With `O=C(O)CC[C@H](O)C(=O)O` [L-2-HG, L-2-Hydroxyglutarate] the Emission ratio (100 μM L-2-HG, 45 min) was 1.032 and 1.026 and 1.029, the Emission ratio (100 μM L-2-HG, 50 min) was 1.0383 and 1.034 and 1.036 and the Emission ratio (100 μM L-2-HG, 55 min) was 1.032 and 1.026 and 1.035. The Emission ratio (100 μM L-2-HG, 60 min) was 1.021 and 1.025 and 1.037, the Emission ratio (100 μM L-2-HG, 65 min) was 1.0313 and 1.027 and 1.042 and the Emission ratio (100 μM L-2-HG, 70 min) was 1.0328 and 1.039 and 1.045. The Emission ratio (100 μM L-2-HG, 75 min) was 1.033 and 1.036 and 1.056, the Emission ratio (100 μM L-2-HG, 80 min) was 1.038 and 1.023 and 1.047 and the Emission ratio (100 μM L-2-HG, 85 min) was 1.027 and 1.0315 and 1.0551. The Emission ratio (100 μM L-2-HG, 90 min) was 1.039 and 1.022 and 1.053, the Emission ratio (200 μM L-2-HG, 0 min) was 0.9917 and 0.9725 and 0.9805 and the Emission ratio (200 μM L-2-HG, 5 min) was 1.014 and 1.003 and 1.0079. For the same molecule, the Emission ratio (200 μM L-2-HG, 10 min) was 1.023 and 1.0171 and 1.02, the Emission ratio (200 μM L-2-HG, 15 min) was 1.025 and 1.029 and 1.038 and the Emission ratio (200 μM L-2-HG, 20 min) was 1.048 and 1.05 and 1.039. The Emission ratio (200 μM L-2-HG, 25 min) was 1.049 and 1.058 and 1.042, the Emission ratio (200 μM L-2-HG, 30 min) was 1.046 and 1.049 and 1.051 and the Emission ratio (200 μM L-2-HG, 35 min) was 1.046 (2×) and 1.055. The Emission ratio (200 μM L-2-HG, 40 min) was 1.05 and 1.054 and 1.06, the Emission ratio (200 μM L-2-HG, 45 min) was 1.052 and 1.0481 and 1.064 and the Emission ratio (200 μM L-2-HG, 50 min) was 1.061 and 1.056 and 1.069. For the same molecule, the Emission ratio (200 μM L-2-HG, 55 min) was 1.06 and 1.0497 and 1.072, the Emission ratio (200 μM L-2-HG, 60 min) was 1.062 and 1.046 and 1.073 and the Emission ratio (200 μM L-2-HG, 65 min) was 1.05 and 1.055 and 1.074. For the same molecule, the Emission ratio (200 μM L-2-HG, 70 min) was 1.061 and 1.042 and 1.07, the Emission ratio (200 μM L-2-HG, 75 min) was 1.068 and 1.046 and 1.072 and the Emission ratio (200 μM L-2-HG, 80 min) was 1.063 and 1.037 and 1.071. The Emission ratio (200 μM L-2-HG, 85 min) was 1.058 and 1.051 and 1.076, the Emission ratio (200 μM L-2-HG, 90 min) was 1.065 and 1.04 and 1.07 and the Emission ratio (1 mM L-2-HG, 0 min) was 1.009 and 0.986 and 0.9798. The Emission ratio (1 mM L-2-HG, 5 min) was 1.043 and 1.0226 and 1.019, the Emission ratio (1 mM L-2-HG, 10 min) was 1.061 and 1.055 and 1.04 and the Emission ratio (1 mM L-2-HG, 15 min) was 1.087 and 1.082 and 1.067. The Emission ratio (1 mM L-2-HG, 20 min) was 1.121 and 1.102 and 1.088, the Emission ratio (1 mM L-2-HG, 25 min) was 1.134 and 1.124 and 1.105 and the Emission ratio (1 mM L-2-HG, 30 min) was 1.1596 and 1.147 and 1.142. For the same molecule, the Emission ratio (1 mM L-2-HG, 35 min) was 1.168 and 1.165 and 1.162, the Emission ratio (1 mM L-2-HG, 40 min) was 1.202 and 1.191 and 1.172 and the Emission ratio (1 mM L-2-HG, 45 min) was 1.22 and 1.2003 and 1.196. The Emission ratio (1 mM L-2-HG, 50 min) was 1.242 and 1.221 and 1.214, the Emission ratio (1 mM L-2-HG, 55 min) was 1.254 and 1.245 and 1.226 and the Emission ratio (1 mM L-2-HG, 60 min) was 1.262 and 1.251 and 1.2291. For the same molecule, the Emission ratio (1 mM L-2-HG, 65 min) was 1.264 and 1.242 and 1.229, the Emission ratio (1 mM L-2-HG, 70 min) was 1.261 and 1.241 and 1.2295 and the Emission ratio (1 mM L-2-HG, 75 min) was 1.265 and 1.246 and 1.229. For the same molecule, the Emission ratio (1 mM L-2-HG, 80 min) was 1.265 and 1.238 and 1.24, the Emission ratio (1 mM L-2-HG, 85 min) was 1.257 and 1.244 and 1.238 and the Emission ratio (1 mM L-2-HG, 90 min) was 1.253 and 1.243 (2×). The Emission ratio (2 mM L-2-HG, 0 min) was 1.001 and 0.9869 and 0.9858, the Emission ratio (2 mM L-2-HG, 5 min) was 1.042 and 1.028 and 1.0185 and the Emission ratio (2 mM L-2-HG, 10 min) was 1.085 and 1.067 and 1.059. For the same molecule, the Emission ratio (2 mM L-2-HG, 15 min) was 1.125 and 1.11 and 1.101, the Emission ratio (2 mM L-2-HG, 20 min) was 1.179 and 1.162 and 1.146 and the Emission ratio (2 mM L-2-HG, 25 min) was 1.241 and 1.208 and 1.197. For the same molecule, the Emission ratio (2 mM L-2-HG, 30 min) was 1.288 and 1.254 and 1.257, the Emission ratio (2 mM L-2-HG, 35 min) was 1.301 and 1.278 and 1.2733 and the Emission ratio (2 mM L-2-HG, 40 min) was 1.333 and 1.31 and 1.292. For the same molecule, the Emission ratio (2 mM L-2-HG, 45 min) was 1.337 and 1.329 and 1.307, the Emission ratio (2 mM L-2-HG, 50 min) was 1.347 and 1.335 and 1.324 and the Emission ratio (2 mM L-2-HG, 55 min) was 1.344 and 1.327 and 1.336. For the same molecule, the Emission ratio (2 mM L-2-HG, 60 min) was 1.352 and 1.339 and 1.329, the Emission ratio (2 mM L-2-HG, 65 min) was 1.34 and 1.338 and 1.3346 and the Emission ratio (2 mM L-2-HG, 70 min) was 1.362 and 1.355 and 1.346. The Emission ratio (2 mM L-2-HG, 75 min) was 1.365 and 1.3372 and 1.347, the Emission ratio (2 mM L-2-HG, 80 min) was 1.351 and 1.344 (2×) and the Emission ratio (2 mM L-2-HG, 85 min) was 1.353 and 1.367 and 1.357. For the same molecule, the Emission ratio (2 mM L-2-HG, 90 min) was 1.364 and 1.351 and 1.361, the Emission ratio (10 mM L-2-HG, 0 min) was 0.9626 and 0.9634 and 0.9687 and the Emission ratio (10 mM L-2-HG, 5 min) was 1.087 and 1.079 and 1.06. For the same molecule, the Emission ratio (10 mM L-2-HG, 10 min) was 1.2277 and 1.2165 and 1.18, the Emission ratio (10 mM L-2-HG, 15 min) was 1.322 and 1.305 and 1.285 and the Emission ratio (10 mM L-2-HG, 20 min) was 1.375 and 1.367 and 1.334. The Emission ratio (10 mM L-2-HG, 25 min) was 1.391 and 1.39 and 1.353, the Emission ratio (10 mM L-2-HG, 30 min) was 1.418 and 1.395 and 1.38 and the Emission ratio (10 mM L-2-HG, 35 min) was 1.427 and 1.411 and 1.3928. The Emission ratio (10 mM L-2-HG, 40 min) was 1.439 and 1.431 and 1.3904, the Emission ratio (10 mM L-2-HG, 45 min) was 1.426 and 1.425 and 1.4013 and the Emission ratio (10 mM L-2-HG, 50 min) was 1.427 and 1.438 and 1.392. The Emission ratio (10 mM L-2-HG, 55 min) was 1.431 (2×) and 1.402, the Emission ratio (10 mM L-2-HG, 60 min) was 1.432 and 1.435 and 1.413 and the Emission ratio (10 mM L-2-HG, 65 min) was 1.425 and 1.426 and 1.404. The Emission ratio (10 mM L-2-HG, 70 min) was 1.4381 and 1.438 and 1.417, the Emission ratio (10 mM L-2-HG, 75 min) was 1.426 and 1.4264 and 1.415 and the Emission ratio (10 mM L-2-HG, 80 min) was 1.4478 and 1.43 and 1.416. The Emission ratio (10 mM L-2-HG, 85 min) was 1.446 and 1.432 and 1.415 and the Emission ratio (10 mM L-2-HG, 90 min) was 1.432 and 1.427 and 1.418.
